# Patent US5658913A, “Chemopreventive compounds and a preparation method and use thereof” (Kim; Nak Doo, priority 1993, dated 1997)
# Key:
# [1] = system: enzymes involved in phase II reactions; conditions: literature; cited from earlier work
# cancers = conditions: literature; cited from earlier work
# cytochrome P-450 2E1 = conditions: cited from earlier work; for effect on cytochrome P-450 2E1 expression: literature / inventors' submitted paper
# [2] = system: microsomal epoxide hydrolase (mEH); experiment: Western blot analysis for microsomal epoxide hydrolase (Experimental Example 3(1)); assay type: in vivo, Sprague-Dawley rat; conditions: 200 mg/kg i.p. for 1, 2 or 3 days; FIG. 6
# Description: The hepatic microsomes were separated and subjected to SDS-polyacrylamide gel electrophoresis by following the same procedure as in the above Experimental Example 1(1). Thereafter, western blot analysis for microsomal epoxide hydrolase(mEH) was carried out as follows:
# Streptavidine-horseradish peroxidase and 4-chloro-1-naphtol were added to the reaction mixture to develop a color.
# aniline hydroxylase [3] = experiment: Aniline hydroxylase activity of hepatic microsomes (Experimental Example 1(2-2)); assay type: in vivo, Sprague-Dawley rat; conditions: 200 mg/kg
# Description: (§1) Six groups of Sprague-Dawley rat weighing 190±30 g were administered with pyrazine(Groups 1 to 3) or the compound prepared in Example 1-1(Groups 4 to 6) in a dose of 200 mg/kg for 1, 2 or 3 days. After the hepatic microsomes were separated by following the same procedure as in the above (1), activity of p-nitrophenol hydrolase was measured according to the method of Koop(Dennis R. Koop, Hydroxylation p-nitrophenol by rabbit ethanol inducible cytochrome P-450 isozyme 3a, Molecular Pharmacol. 29, 399-404(1986)).
# The same procedure as in the above (2-1) was carried out to measure the activity of aniline hydroxylase. The activity of aniline hydroxylase was measured according to the method of Mieyal(John J. Mieyal, Acceleration of the autooxidation of human oxyhemoglobin by aniline and its relation to hemoglobin-catalyzed aniline hydroxylation, J. Biol. Chem. 251, 3442-3446(1976)).
# (§2) Thus, 1 mg of microsomes and 5 mM aniline were added to 0.6 ml of 0.1M potassium phosphate buffer(pH 6.8) to make the total volume of 0.9 ml. 1 mM NADPH was added to make the total volume of 1.0 ml and the resulting mixture was reacted at 37° C. After 10 minutes, 20% trichloroacetic acid was added to stop the reaction and the reaction mixture was centrifuged. To 1 ml of supernatant were added 0.1 ml of 5% phenol and 0.1 ml of 2.5N sodium carbonate, dissolved in 0.1N NaOH. The mixture was allowed to stand for 30 minutes to develop a color and the absorbance at 630 nm was measured at once. The enzyme activity was expressed in terms of mole concentration of 4-aminophenol, the product of reaction for 1 minute.
# [4] = system: p-nitrophenol hydroxylase; experiment: p-Nitrophenol hydroxylase activity of hepatic microsomes (Experimental Example 1(2-1)); assay type: in vivo, Sprague-Dawley rat; conditions: 200 mg/kg
# Description: In order to examine the effect of the compound of the present invention on the activity of the enzymes involved in phase I reaction, the experiments were carried out as follows:
# as §1
# (§3) Thus, 1 mg of microsomes and 1mM p-nitrophenol were added to 0.6 ml of 0.1M potassium phosphate buffer(pH 6.8) to make the total volume of 0.9 ml. The resulting mixture was preliminarily reacted in a 37° C. incubator for 2 minutes and started to react while adding 1 mM NADPH(0.1 ml). After 3 minutes, 0.5 ml of 0.6N perchloric acid was added to develop a color and the absorbance at 546 nm was measured at once. The enzyme activity was expressed in terms of mole concentration of 4-nitrocatechol, the product of reaction for 1 minute.
# [5] = system: N-nitrosodimethylamine demethylase; experiment: N-Nitrosodimethylamine demethylase activity of hepatic microsomes (Experimental Example 1(2-3)); assay type: in vivo, Sprague-Dawley rat; conditions: 200 mg/kg, 1 to 3 days, time-dependent
# Description: as §1
# The same procedure as in the above (2-1) was carried out to measure the activity of N-nitrosodimethyl demethylase. The activity of N-nitrosodimethyl demethylase was measured according to the method of Kaul and Novak(Kaul, L. L. and Novak, R. F., Induction of rabbit hepatic microsomal cytochrome P-450 by imidazole; enhanced metabolic activity and altered substrate specificity, Arch. Biochem. Biophys., 235, 470-481(1984)).
# Thus, 10 mM N-Nitrosodimethylamine and 0.6 ml of 0.1M potassium phosphate buffer(pH 7.4) were added to 1 mg of microsomes, and 1 mM NADPH was added to make the total volume of 1 ml. After the mixture was reacted at 37° C. for 30 minutes, 20% trichloroacetic acid was added to stop the reaction and the reaction mixture was centrifuged. […] The mixture was allowed to stand at 37° C. for 45 minutes to develop a color and the absorbance at 412 nm was measured. […]
# P450 2E1 = experiment: Immunoblot analysis of P-450 2E1 expression when administered together with INAH (Experimental Example 2(1)); assay type: in vivo, Sprague-Dawley rat; conditions: 200 mg/kg i.p. plus INAH 200 mg/kg; FIG. 5
# Description: To the first group as a control group, corn oil was administered intraperitoneally in an amount of 0.1 ml/200 g body weight. The second group was administered intraperitoneally INAH diluted with PBS in a dose of 200 mg/kg body weight. […] The hepatic microsomes were separated and subjected to Western blot analysis on SDS-PAGE by following the same procedure as in the above Experimental Example 1 (1).
# [6] = system: Glutathion S-transferase (GST); experiment: GST activity, administered alone or in combination with INAH (Experimental Example 4(2)); assay type: in vivo, Sprague-Dawley rat; conditions: for increase of expression of glutathione S-transferase: Table 3
# Description: Thus, to 25 μg(0.1 ml) of cytosol protein were added 0.1 mM […] and 1.0 mM glutathione as substrates, and 0.1M potassium phosphate were added to make the total volume of 1.0 ml(pH 6.4). The resulting mixture was allowed to stand at room temperature for 2 minutes and measured for its absorbance at 340 nm at intervals of 15 seconds during the period of 1 minute. As a reference, a cytosol protein denatured by heating was used. The activity of GST was calculated by measuring the change of absorbance for the period of 1 minute and employing the extinction coefficient of 9.6 mM^-1 cm^-1.
# In order to examine the effect of the compound of the present invention on the activity of the enzymes involved in phase II reaction when administered alone or in combination with INAH, the experiments were carried out as follows:
# Sixteen groups of Sprague-Dawley rat weighing 190±30 g were intraperitoneally administered with corn oil(Group 1), compounds of Examples 2 to 8(Groups 2 to 8), INAH(Group 9), or INAH plus the compounds of Examples 2 to 8(Groups 10 to 16), each in a dose of 200 mg/kg. The inventive compounds and INAH were diluted with corn oil, and the test compounds were administered just after administering INAH.
# The change in the activity of GST was measured by following the same procedure as in Experimental Example 3(2). The activity of enzyme was determined by considering the activity of enzyme when corn oil or INAH alone was administered as 100%.
# [7] = system: p-nitrophenol hydroxylase; experiment: p-Nitrophenol hydroxylase activity in combination with INAH (Experimental Example 2(2)); assay type: in vivo, Sprague-Dawley rat; conditions: INAH alone = 100%; INAH plus compound, each 200 mg/kg i.p.
# Description: as §3
# (§4) In order to examine the effect of the compound of the present invention on the activity of the enzymes involved in phase I reaction when administered in combination with INAH, the experiments were carried out as follows:
# (§5) Eight groups of Sprague-Dawley rat weighing 190±30 g were intraperitoneally administered with INAH(Group 1), or INAH plus the compounds of Examples 2 to 8(Groups 2 to 8), each in a dose of 200 mg/kg. The inventive compounds and INAH were diluted with corn oil and PBS respectively, and the test compounds were administered just after administering INAH.
# (§6) The changes in the activity of p-nitrophenol hydroxylase and aniline hydroxylase were measured by following the same procedure as in Experimental Example 1(2-1) and (2-2). The activity of enzymes was determined by considering the activity of enzyme when INAH alone was administered as 100%.
# [8] = system: p-nitrophenol hydroxylase; experiment: as above; assay type: in vivo, Sprague-Dawley rat; conditions: for p-Nitrophenol hydrolase, Amount: INAH 200 mg/kg i.p., alone or plus compound 200 mg/kg; for inhibition of expression of p-nitrophenol hydroxylase induced by INAH: INAH plus compound, each 200 mg/kg i.p., in words
# aniline hydroxylase [9] = experiment: Aniline hydroxylase activity in combination with INAH (Experimental Example 2(2)); assay type: in vivo, Sprague-Dawley rat; conditions: for Aniline hydroxylase, Amount: INAH 200 mg/kg i.p., alone or plus compound 200 mg/kg; for Aniline hydroxylase, Activity: INAH alone = 100%; for Aniline hydroxylase, Activity / inhibition of expression of aniline hydroxylase induced by INAH: INAH plus compound, each 200 mg/kg i.p.; for inhibition of expression of aniline hydroxylase induced by INAH: in words
# Description: as §2, §4, §5, §6
# [10] = INAH alone or INAH plus compound, each 200 mg/kg i.p.
# [11] = INAH plus compound, each 200 mg/kg i.p., INAH alone = 100%
# [12] = compound alone, 200 mg/kg i.p., corn oil = 100%
molecule,measurement,setting,value
"Cc1cc(C(C)(C)C)c(O)c(C(C)(C)C)c1 [butylhydroxytoluene, 3,5-ditert-butyl-4-hydroxytoluene]",induction of enzymes involved in phase II reactions,[1],shows a anti-cancer activity by inducing enzymes involved in phase II reactions
2(3)-tert-butyl-4-hydroxyanisole [butylhydroxyanisole],induction of enzymes involved in phase II reactions,[1],shows an anti-cancer activity by inducing enzymes involved in phase II reactions
"C=CCSCC=C [allylsulfide, diallylsulfide]",cancer suppression,cancers,strongly suppress liver and colon cancers
same,suppression of cytochrome P-450 2E1 induced by pyrazine,cytochrome P-450 2E1; inventors' submitted paper,completely suppress cytochrome P-450 2E1 induced by the action of pyrazine
same,effect on cytochrome P-450 2E1 expression,cytochrome P-450 2E1,strongly inhibits the expression of cytochrome P-450 2E1
"C=CCSc1cnccn1 [Example 1-1, 2-(2-propenylthio)pyrazine]",expression of mEH compared to control or pyrazine groups,[2],significant increase in the expression of mEH
same,decrease in activity of aniline hydroxylase compared to pyrazine groups,aniline hydroxylase [3]; 1 day,57%
same,decrease in activity of aniline hydroxylase compared to pyrazine groups,aniline hydroxylase [3]; 2 days,80%
same,decrease in activity of aniline hydroxylase compared to pyrazine groups,aniline hydroxylase [3]; 3 days,88%
same,decrease in activity of p-nitrophenol hydrolase compared to pyrazine groups,[4]; 1 day,64%
same,decrease in activity of p-nitrophenol hydrolase compared to pyrazine groups,[4]; 2 days,73%
same,decrease in activity of p-nitrophenol hydrolase compared to pyrazine groups,[4]; 3 days,82%
same,decrease in activity of N-nitrosodimethylamine demethylase compared to pyrazine groups,[5],49-73%
C=CC(C)Sc1cnccn1 (stereo not shown) [Example 8],suppression of enzyme (P450 2E1) expression induced by INAH,P450 2E1,strongest suppression
same,"Glutathion S-transferase, Amount",[6]; [10],2.808 nmol/min/mg protein
same,"Glutathion S-transferase, Activity",[6]; [11],140%
same,induction of expression of glutathione S-transferase when INAH is administered,"[6]; INAH plus compound, in words",strongly induce expression of enzyme
same,"Glutathion S-transferase, Amount","[6]; compound alone, 200 mg/kg i.p.",3.290 nmol/min/mg protein
same,increase of expression of glutathione S-transferase,"[6]; compound alone, 200 mg/kg i.p.",≥ 70%
same,"Glutathion S-transferase, Activity",[6]; [12],181%
same,"p-Nitrophenol hydrolase, Activity",[7],40%
same,"p-Nitrophenol hydrolase, Amount",[8],2.33 nmol/min/mg protein
same,inhibition of expression of p-nitrophenol hydroxylase induced by INAH,[8],superior inhibitory action
same,"Aniline hydroxylase, Amount",aniline hydroxylase [9],0.659 nmol/min/mg protein
same,"Aniline hydroxylase, Activity",aniline hydroxylase [9],45%
same,inhibition of expression of aniline hydroxylase induced by INAH,aniline hydroxylase [9],superior inhibitory action
Cc1c(-c2cnccn2)ssc1=S [Oltipraz],induction of enzymes involved in phase II reactions,[1],ability of inducing enzymes of phase II reactions
same,cancer suppression,cancers,can suppress lung and stomach cancers
c1cnccn1 [pyrazine],effect on cytochrome P-450 2E1 expression,cytochrome P-450 2E1,inducing cytochrome P-450 2E1
"CC=CCSc1cnccn1 [Example 7, 2-(2-butenylthio)pyrazine]","Glutathion S-transferase, Amount",[6]; [10],2.263 nmol/min/mg protein
same,"Glutathion S-transferase, Activity",[6]; [11],113%
same,"Glutathion S-transferase, Amount","[6]; compound alone, 200 mg/kg i.p.",3.046 nmol/min/mg protein
same,increase of expression of glutathione S-transferase,"[6]; compound alone, 200 mg/kg i.p.",≥ 70%
same,"Glutathion S-transferase, Activity",[6]; [12],177%
same,"p-Nitrophenol hydrolase, Activity",[7],40%
same,"p-Nitrophenol hydrolase, Amount",[8],2.33 nmol/min/mg protein
same,inhibition of expression of p-nitrophenol hydroxylase induced by INAH,[8],superior inhibitory action
same,"Aniline hydroxylase, Amount",aniline hydroxylase [9],0.712 nmol/min/mg protein
same,"Aniline hydroxylase, Activity",aniline hydroxylase [9],49%
same,inhibition of expression of aniline hydroxylase induced by INAH,aniline hydroxylase [9],superior inhibitory action
